The source of these data is PubChem BioAssay AID1508612.

As a reminder, the Papp is the rate of passage across a membrane or cell layer, normalised by area and donor concentration. High values mean ready permeation, low ones poor permeation.

The nature of this data set: passive permeability, PAMPA, ADME assay (AID 1508612). The note with it: pH 7.4, 30.0 min, 50.0 µM. In general terms: In PAMPA a lipid-coated filter parts donor from acceptor wells.

The compound `CN(Cc1ccc(/C=C/C(=O)NO)cc1)CC12CC3CC(CC(C3)C1)C2` showed a Papp above 1000 ×10⁻⁶ cm/s.

`O=C(O)c1ccccc1C(=O)Nc1ccc(-c2ccccc2)cc1` yielded a Papp of 3.49 ×10⁻⁶ cm/s.

`COc1ccc(CCn2c(N)cc(=O)[nH]c2=S)cc1OC` showed a Papp of 7.34 ×10⁻⁶ cm/s.

The compound `CC[C@@H](CO)NC(=O)[C@@H]1C=C2c3cccc4c3c(cn4C)C[C@H]2N(C)C1` showed a Papp of 396 ×10⁻⁶ cm/s.

With `Oc1ccc(-c2nc(C3CC3)nc3c2CCN(CC2CCCCC2)CC3)cc1`, the Papp was above 1000 ×10⁻⁶ cm/s.

The compound `CCOP(=O)(Cc1ccc(C(=O)Nc2ccc(Br)cc2C#N)cc1)OCC` showed a Papp of 255 ×10⁻⁶ cm/s.

In the case of `COc1ccc(C2Nc3ccccc3C(=O)N2Cc2cccnc2)cc1COc1c(C)cc(NC(C)=O)cc1C` (stereo unspecified), the Papp was above 1000 ×10⁻⁶ cm/s.

Compound `COc1ccc(NC(=O)c2c(C)c(C(C)=O)c(C)n2C)cc1S(=O)(=O)Nc1ccc(Br)cc1` showed a Papp below 1 ×10⁻⁶ cm/s.

For `COc1cccc(NC(=S)N2CCN(c3cccc(C(F)(F)F)c3)CC2)n1`, the Papp stood at 735 ×10⁻⁶ cm/s.

Regarding `COc1cccc(CNC(=O)c2c(OC)cc(=O)n3c2CCN(C(=O)c2ccc(C)cc2C)CC3)c1`, the Papp was 93.9 ×10⁻⁶ cm/s.

On to `COc1ccnc(NC(=S)N2CCN(c3cccc(C(F)(F)F)c3)CC2)c1`, for which the Papp amounted to 417 ×10⁻⁶ cm/s.

Turning to `N#Cc1ccc(S(=O)(=O)Nc2cnccc2C(=O)Nc2nc(-c3ccccc3)cs2)cc1`, the Papp was 279 ×10⁻⁶ cm/s.

The compound `Cc1cccc2nc(-c3ccccn3)c(Nc3ccc(F)cc3)n12` registered an apparent permeability coefficient (Papp) above 1000 ×10⁻⁶ cm/s.

`CCOc1ccc(CCNC(=O)c2cccc(C(=O)c3ccccc3)c2)cc1OCC` registered a Papp above 1000 ×10⁻⁶ cm/s.

`C#CC1(O)CCC2C3CCC4=C/C(=N/OCC(=O)NCC(=O)NC(C(=O)O)C(C)C)CC[C@]4(C)C3CC[C@@]21C` (stereo partly specified) yielded a Papp of 4.52 ×10⁻⁶ cm/s.

In turn, `COc1cc(Nc2nc(-c3ccncc3)nc3ccccc23)ccc1N1CCN(C)CC1` returned a Papp above 1000 ×10⁻⁶ cm/s.

`CN1CCN(c2ccc(-c3cccc(CN4CCOCC4)c3)cc2NC(=O)c2c[nH]c(=O)cc2C(F)(F)F)CC1` returned a Papp of 3.88 ×10⁻⁶ cm/s.

`O=C(NCCCCc1ccccc1)C1CCN(c2nc(-c3ccc(Br)cc3)cs2)CC1` registered a Papp of 5.3 ×10⁻⁶ cm/s.

Turning to `CC(C)Oc1ccc(CNC(=O)C2CCN(C(=O)N3CCOc4ccc(Cl)cc43)CC2)cc1`, the Papp came out at 451 ×10⁻⁶ cm/s.

`Nc1cc(CN2C(=O)c3ccccc3C2=O)cc(Cl)c1O` displayed a Papp of 352 ×10⁻⁶ cm/s.

`CCN(CC)CCNC(=O)c1c(C)[nH]c(/C=C2\C(=O)Nc3ccc(F)cc32)c1C` showed an apparent permeability (Papp) of 235 ×10⁻⁶ cm/s.

`CC(C)Oc1ccc(-c2csc(N3CCC(C(N)=O)CC3)n2)cc1` returned a Papp above 1000 ×10⁻⁶ cm/s.

As for `CCCCN(CC)CCNC(=O)c1cc2c(-c3ccc(Cl)cc3)nn(C)c2s1`, the Papp is above 1000 ×10⁻⁶ cm/s.

In the case of `CCN1CCN(C(=O)c2cc(-c3ccc(F)cc3)c3nncn3n2)CC1`, the Papp stood at 159 ×10⁻⁶ cm/s.

Take `COc1cccc(CNc2ccc(S(=O)(=O)Nc3cccc4ccccc34)cc2)c1O`: the Papp is below 1 ×10⁻⁶ cm/s.

For `CCOC(=O)C1CCN(C(=O)C2(NC(=O)Nc3ccc(F)cc3F)CCCCC2)CC1`, the Papp turned out to be 177 ×10⁻⁶ cm/s.

For the compound `Cc1nc2sccn2c(=O)c1S(=O)(=O)Nc1ccc(N2CCN(S(C)(=O)=O)CC2)cc1`, the Papp is 209 ×10⁻⁶ cm/s.

`Cc1ccccc1C(C(=O)NC1CCCC1)N(C(=O)Cn1cnc2ccccc21)c1cccc(F)c1` (stereo unspecified) had a Papp above 1000 ×10⁻⁶ cm/s.

`COC12C(COC(N)=O)C3=C(C(=O)C(C)=C(N)C3=O)N1CC1C2N1C` (stereo unspecified) displayed a Papp of 1.95 ×10⁻⁶ cm/s.

Compound `CCCCN(CC)CCCNC(=O)c1ccc2c(c1)N(Cc1ccc(C)cc1)C(=O)c1ccccc1S2` yielded a Papp of 827 ×10⁻⁶ cm/s.

Compound `Cc1ccc(OCCn2c(CCNC(=O)N3CCCCC3)nc3ccccc32)cc1` registered a Papp above 1000 ×10⁻⁶ cm/s.

As to `O=C(Nc1ccccc1)C1CCN(c2ncc(-c3ccc4c(c3)OCCCO4)s2)CC1`, the Papp turned out to be 917 ×10⁻⁶ cm/s.

`Cc1ccc(S(=O)(=O)Nc2cnccc2C(=O)NCCc2ccccc2)cc1`: the Papp was 20.3 ×10⁻⁶ cm/s.

For `Cc1ccc(S(=O)(=O)c2cnc(SC(C)C(=O)Nc3ccccc3)[nH]c2=O)cc1` (stereo unspecified), the Papp is 1.2 ×10⁻⁶ cm/s.

For `Cc1cn(CCN2CCN(c3ccccc3-c3cc(C#N)cc(C(=O)NCCCN4CCCC4)c3)CC2)c2ccccc12`, the Papp was below 1 ×10⁻⁶ cm/s.

As to `O=C(Nc1ccc(Cl)cc1)C(NS(=O)(=O)c1cccs1)c1ccccc1` (stereo unspecified), the Papp was below 1 ×10⁻⁶ cm/s.

In turn, `COc1ccc(CN2CCNc3cc(Nc4ccccc4)ncc3C2)cn1` returned a Papp of 834 ×10⁻⁶ cm/s.

Regarding `CCN(CC)S(=O)(=O)c1ccc(N2CCCC2)c(NS(=O)(=O)c2ccccc2)c1`, the Papp worked out at 396 ×10⁻⁶ cm/s.

Consider `Cc1ccc(S(=O)(=O)Nc2cnccc2C(=O)Nc2ccccc2)cc1`, for which the Papp was found to be 123 ×10⁻⁶ cm/s.

For `N#Cc1nc(-c2cccc3ccccc23)oc1NC1COC1`, the Papp is above 1000 ×10⁻⁶ cm/s.

On to `O=C(Nc1nc(-c2ccccn2)cs1)c1cccc(-n2cnnn2)c1`, for which the apparent permeability (Papp) was 290 ×10⁻⁶ cm/s.

The compound `OCCNc1ncnc2c1ncn2[C@@H]1O[C@@H](CO)[C@H](O)[C@@H]1O` came in with a Papp below 1 ×10⁻⁶ cm/s.

As for `O=C(NCCCc1ccccc1)c1cccc(-c2cc(O)c3ncccc3c2)c1`, the Papp was below 1 ×10⁻⁶ cm/s.

In the case of `CCOc1ccc(C2C(C(=O)Nc3ccccc3OC)=C(C)Nc3c(C(=O)Nc4cccc(C)c4)cnn32)cc1` (stereo unspecified), the Papp stood at 871 ×10⁻⁶ cm/s.

For `Cc1nn2c(c1-c1ccccc1Oc1ccccc1)N(Cc1ccccc1O)CCC2`, the Papp was above 1000 ×10⁻⁶ cm/s.

The compound `CCc1ccc(C2N=C(N)Nc3nc4ccccc4n32)cc1` (stereo unspecified) displayed an apparent permeability (Papp) of 4.65 ×10⁻⁶ cm/s.

In turn, `CSc1ccc(/C=C/c2nc3ccccc3n2S(=O)(=O)c2cccc(Cl)c2)cc1` returned a Papp of 911 ×10⁻⁶ cm/s.

`COc1ccc(CN(C2CCCCC2C)S(=O)(=O)c2ccc(S(=O)(=O)N(C)C)cc2)cc1OC` (stereo unspecified) came in with a Papp of 18.8 ×10⁻⁶ cm/s.

Compound `Cc1ccc(C)n1-c1cccc(C(=O)O)c1` returned a Papp of 34.6 ×10⁻⁶ cm/s.

Turning to `O=[N+]([O-])c1ccc(/C=N/n2c(CO)nc3ccccc32)s1`, the Papp amounted to 269 ×10⁻⁶ cm/s.

In turn, `CCc1ccc(OC(C)C(=O)N2CCC(c3nc4ccccc4o3)CC2)cc1` (stereo unspecified) displayed an apparent permeability (Papp) above 1000 ×10⁻⁶ cm/s.

`COc1cccc(CNc2ccc(S(=O)(=O)Nc3cccc(N4CCNCC4)c3)cc2)c1O` yielded a Papp of 16 ×10⁻⁶ cm/s.

The compound `O=C(CCCN1CCC(O)(c2cccc(C(F)(F)F)c2)CC1)c1ccc(F)cc1` displayed a Papp above 1000 ×10⁻⁶ cm/s.

Compound `O=C(NC(c1ccccc1)c1cc(Cl)c2cccnc2c1O)c1cccnc1` (stereo unspecified) showed an apparent permeability (Papp) of 51.6 ×10⁻⁶ cm/s.

In turn, `COc1ccc(C2=Nn3c(nnc3-c3ccncc3)SC2)cc1` displayed a Papp of 244 ×10⁻⁶ cm/s.

`COC(=O)c1nc(-c2cccc3ccccc23)oc1OC` displayed a Papp of 939 ×10⁻⁶ cm/s.

In the case of `COc1cccc(-c2noc(Nc3ccc4c(c3)OCCO4)n2)c1`, the Papp worked out at 202 ×10⁻⁶ cm/s.

Compound `COc1cc(NS(=O)(=O)c2ccc(C)cc2)c(C(=O)Nc2nc(-c3ccccc3)cs2)cc1OC` yielded a Papp of 325 ×10⁻⁶ cm/s.

On to `Cc1cc(C)nc(NC(=S)N2CCN(Cc3ccc(C(F)(F)F)cc3)CC2)c1`, for which the Papp was above 1000 ×10⁻⁶ cm/s.

With `CN(C)C(=O)c1cc(-c2ccc(S(C)(=O)=O)cc2)c2cnn(C)c2n1`, the Papp came out at 22.6 ×10⁻⁶ cm/s.

For the compound `Cc1cc(-c2nnc3n2CCCCC3)c(C)n1-c1ccccc1`, the apparent permeability (Papp) is 581 ×10⁻⁶ cm/s.

Take `Cc1c(CN(C)c2cc(C3CC(O)C3)nc(N)n2)[nH]c2ccccc12` (stereo unspecified): the apparent permeability coefficient (Papp) is below 1 ×10⁻⁶ cm/s.

For `CCOc1ccccc1CNS(=O)(=O)c1ccc(-c2cnc(C3CC3)o2)cc1`, the Papp was above 1000 ×10⁻⁶ cm/s.

The compound `COc1ccc(-c2csc(N3CCC(C(N)=O)CC3)n2)cc1OC` returned a Papp of 270 ×10⁻⁶ cm/s.

`COc1ccc(C(=O)N[C@@H]2CCC[C@@H]2C(=O)N2CCC(Cc3ccccc3)CC2)cc1` registered an apparent permeability (Papp) above 1000 ×10⁻⁶ cm/s.

`CCCCCCCCc1ccc(CCC(N)(CO)CO)cc1`: the apparent permeability (Papp) is 5.3 ×10⁻⁶ cm/s.
